ChEMBL document CHEMBL1148617, “Design, synthesis, and structure-activity relationships of 1-,3-,8-, and 9-substituted-9-deazaxanthines at the human A2B adenosine receptor” (J Med Chem, 2006)

Assays:
Adenosine receptor A2b = biological target: T1, Adenosine receptor A2b (Homo sapiens, UniProt P29275)
T1 sequence (P29275 whole entry): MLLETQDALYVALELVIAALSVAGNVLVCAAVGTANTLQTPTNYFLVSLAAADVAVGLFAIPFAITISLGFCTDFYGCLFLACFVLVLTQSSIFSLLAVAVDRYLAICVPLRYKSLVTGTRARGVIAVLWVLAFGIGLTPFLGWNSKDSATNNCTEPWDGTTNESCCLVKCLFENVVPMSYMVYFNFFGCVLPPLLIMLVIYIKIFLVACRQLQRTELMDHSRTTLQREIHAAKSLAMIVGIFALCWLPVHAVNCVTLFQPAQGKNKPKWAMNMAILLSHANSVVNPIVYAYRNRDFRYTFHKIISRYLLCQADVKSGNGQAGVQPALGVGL
Description: Binding affinity to recombinant human adenosine A2B receptor

[1] = biological target: T2, Adenosine receptor A2b (Homo sapiens) (UniProt P29275); experiment: Displacement of [3H]DPCPX from recombinant human adenosine A2B receptor expressed in HEK293 cells at 0.01 uM
T2 sequence (whole entry): T1 sequence (P29275 whole entry)

Adenosine receptor A2a [2] = biological target: T3, Adenosine receptor A2a (Homo sapiens, UniProt P29274)
Description: Binding affinity to recombinant human adenosine A2A receptor

[3] = biological target: T2, Adenosine receptor A2b (Homo sapiens); experiment: Displacement of [3H]DPCPX from recombinant human adenosine A2B receptor expressed in HEK293 cells at 0.1 uM; type: cell-based
Adenosine receptor A2a [4] = biological target: T3, Adenosine receptor A2a; experiment: Displacement of [3H]ZM-241385 from recombinant human adenosine A2A receptor expressed in HeLa cells at 0.1 uM

T3 sequence (P29274 whole entry): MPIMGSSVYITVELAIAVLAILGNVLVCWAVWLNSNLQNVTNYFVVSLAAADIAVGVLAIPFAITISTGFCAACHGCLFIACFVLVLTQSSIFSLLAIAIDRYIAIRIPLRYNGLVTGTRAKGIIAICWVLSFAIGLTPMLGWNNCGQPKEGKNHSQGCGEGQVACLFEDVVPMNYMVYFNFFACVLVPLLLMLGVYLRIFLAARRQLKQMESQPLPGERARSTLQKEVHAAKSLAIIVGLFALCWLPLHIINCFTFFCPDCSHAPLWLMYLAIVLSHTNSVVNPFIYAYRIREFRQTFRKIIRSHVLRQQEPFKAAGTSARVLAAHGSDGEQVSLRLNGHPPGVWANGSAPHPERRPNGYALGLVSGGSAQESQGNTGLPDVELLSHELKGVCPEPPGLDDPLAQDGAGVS

SMILES | Ki (Adenosine receptor A2b) [µM] | inhibition [1] [%] | Ki (Adenosine receptor A2a [2]) [µM] | inhibition [3] [%] | inhibition (Adenosine receptor A2a [4]) [%]
CCCn1c(=O)c2[nH]c(-c3ccc(OCC(=O)Nc4ccc(Br)cc4)cc3)c(Cl)c2n(CCC)c1=O | 0.0245 | 15 | 0.126 | 73 | 37
CCCn1c(=O)c2[nH]c(-c3ccc(OC(C)(C)C(=O)Nc4ccccc4)cc3)cc2n(CCC)c1=O | 0.00794 | 51 | 0.0537 | 93 | 57
COc1cc(OCC(=O)NCc2ccc(Cl)cc2)ccc1-c1cc2c([nH]1)c(=O)n(C)c(=O)n2C | 0.123 | 11 | 0.186 | 46 | 23
CCCn1c(=O)c2[nH]c(-c3ccc(OCC(=O)Nc4ccc(CC(=O)OCC)cc4)cc3)cc2n(CCC)c1=O | 0.0603 | 32 | 0.24 | 58 | 10
CCCn1c(=O)c2[nH]c(-c3ccc(OCC(=O)Nc4ccc(-c5ccccc5)cc4)cc3)cc2n(CCC)c1=O | 0.0162 | 40 | 0.0692 | 80 | 36
CCCn1c(=O)c2[nH]c(-c3ccc(OC(C)C(=O)Nc4ccccc4)cc3)cc2n(CCC)c1=O (stereo unspecified) | 0.00513 | 50 | 0.105 | 92 | 42
CCCn1c(=O)c2[nH]c(-c3ccc(OCC(=O)Nc4ccccc4)cc3)c(Cl)c2n(CCC)c1=O | 0.0372 | 11 | 0.0741 | 57 | 37
Cn1c(=O)c2[nH]c(-c3cccc(OCC(=O)Nc4ccccc4)c3)cc2n(C)c1=O | 0.166 | 10 | 0.204 | 35 | 32
CCCn1c(=O)c2[nH]c(-c3ccc(OCC(=O)Nc4cc(OC)nc(OC)n4)cc3)cc2n(CCC)c1=O | 0.011 | 30 | 0.0891 | 80 | 41
CCCn1c(=O)c2[nH]c(-c3ccc(OCC(=O)Nc4ccc(C)cc4)cc3)c(Cl)c2n(CCC)c1=O | 0.0186 | 38 | 0.0324 | 78 | 50
CCCn1c(=O)c2[nH]c(-c3ccc(OCC(=O)Nc4ccc(OC)nc4)cc3)cc2n(C)c1=O | 0.00316 | 57 | 0.132 | 99 | 30
Cn1c(=O)c2[nH]c(-c3ccc(OCC(=O)NC4CCCC4)cc3)cc2n(C)c1=O | 0.0794 | 20 | 0.692 | 57 | 8
CCCn1c(=O)c2[nH]c(-c3ccc(OCC(=O)Nc4ccc(OCc5ccccc5)cc4)cc3)cc2n(CCC)c1=O | 0.00891 | 49 | 0.0186 | 76 | 60
CCCn1c(=O)c2[nH]c(-c3ccc(OCC(=O)Nc4ccccc4)cc3)cc2n(CCC)c1=O | 0.00933 | 47 | 0.224 | 92 | 6
CCCn1c(=O)c2[nH]c(-c3ccc(OCC(=O)NCc4ccccc4)cc3)c(Cl)c2n(CCC)c1=O | 0.0832 | 10 | 0.0603 | 47 | 43
CCCn1c(=O)c2[nH]c(-c3ccc(OC(CC)C(=O)Nc4ccc(F)cc4)cc3)cc2n(CCC)c1=O (stereo unspecified) | 0.00479 | 68 | 0.0191 | 100 | 88
Cn1c(=O)c2[nH]c(-c3ccc(OCC(=O)NCc4ccc(F)cc4)cc3)cc2n(C)c1=O | 0.017 | 36 | 0.0437 | 95 | 56
CCCn1c(=O)c2[nH]c(-c3ccc(OCC(=O)Nc4cccc(F)c4)cc3)c(Cl)c2n(CCC)c1=O | 0.0603 | 6 | 0.245 | 46 | 20
CCCn1c(=O)c2[nH]c(-c3ccc(OCC(=O)Nc4ccc(C)cn4)cc3)cc2n(CCC)c1=O | 0.0126 | 40 | 0.275 | 85 | 29
CCCn1c(=O)c2[nH]c(-c3ccc(OC(C)C(=O)Nc4ccc(OC)cc4)cc3)cc2n(CCC)c1=O (stereo unspecified) | 0.00513 | 55 | 0.0389 | 92 | 57
COc1cc(OCC(=O)Nc2ccccc2)ccc1-c1cc2c([nH]1)c(=O)n(C)c(=O)n2C | 0.0692 | 12 | 1.05 | 55 | 13

SMILES | Ki (Adenosine receptor A2b) [µM] | inhibition [1] [%] | Ki (Adenosine receptor A2a [2]) [µM] | inhibition [3] [%] | inhibition (Adenosine receptor A2a [4]) [%]
O=C(COc1ccc(-c2cc3c([nH]2)c(=O)n(CC2CC2)c(=O)n3CC2CC2)cc1)Nc1ccccc1 | 0.00468 | 57 | 0.0155 | 96 | 93
Cn1c(=O)c2[nH]c(-c3ccc(OCC(=O)NCc4ccccc4)cc3)cc2n(C)c1=O | 0.0513 | 12 | 0.182 | 66 | 25
CCCn1c(=O)c2[nH]c(-c3ccc(OCC(=O)Nc4ccc(O)cc4)cc3)cc2n(CCC)c1=O | 0.0347 | 24 | 0.0562 | 79 | 51
CCn1c(=O)c2[nH]c(-c3ccc(OCC(=O)Nc4ccc(C#N)cc4)cc3)cc2n(CC)c1=O | 0.0135 | 20 | 0.12 | 79 | 2
CCCn1c(=O)c2[nH]c(-c3ccc(OCC(=O)NCc4ccc(F)cc4)cc3)c(Cl)c2n(CCC)c1=O | 0.174 | 8 | 0.049 | 25 | 44
Cn1c(=O)c2[nH]c(-c3ccc(OCC(=O)NCc4ccco4)cc3)cc2n(C)c1=O | 0.0708 | 10 | 0.316 | 52 | 13
CCCn1c(=O)c2[nH]c(-c3ccc(OCC(=O)Nc4ccc(C(N)=O)cc4)cc3)cc2n(CCC)c1=O | 0.0251 | 16 | 0.024 | 78 | 43
CCCn1c(=O)c2[nH]c(-c3ccc(OCC(=O)Nc4ccc(OC(F)(F)F)cc4)cc3)cc2n(CCC)c1=O | 0.00692 | 53 | 0.107 | 91 | 31
CCCn1c(=O)c2[nH]c(-c3ccc(OCC(=O)Nc4ccc(CS(=O)(=O)N5CCCC5)cc4)cc3)cc2n(CCC)c1=O | 0.00776 | 58 | 0.0525 | 70 | 31
CCCn1c(=O)c2[nH]c(-c3ccc(OC(C)C(=O)Nc4ccc(F)cc4)cc3)cc2n(CCC)c1=O (stereo unspecified) | 0.00324 | 62 | 0.0589 | 88 | 51
CCCn1c(=O)c2[nH]c(-c3ccc(OCC(=O)Nc4ccc(NC(C)=O)cc4)cc3)cc2n(CCC)c1=O | 0.0138 | 23 | 0.0631 | 70 | 40
CCCn1c(=O)c2[nH]c(-c3ccc(OC(CC)C(=O)Nc4ccccc4)cc3)cc2n(CCC)c1=O (stereo unspecified) | 0.00977 | 48 | 0.0257 | 93 | 88
CCCn1c(=O)c2[nH]c(-c3ccc(OCC(=O)Nc4ccc(C5=NC(C)(C)CO5)cc4)cc3)cc2n(CCC)c1=O | 0.0347 | 11 | 0.0912 | 67 | 25
COCCCn1c(=O)n(C)c(=O)c2[nH]c(-c3ccc(OCC(=O)Nc4ccccc4)cc3)cc21 | 0.0138 | 27 | 0.12 | 80 | 29
Cn1c(=O)c2[nH]c(-c3ccc(OCC(=O)Nc4ccc(CCN)cc4)cc3)cc2n(C)c1=O | 0.186 | 7 | 0.166 | 34 | 38
CCCn1c(=O)c2[nH]c(-c3ccc(OCC(=O)Nc4ccc(OC)cc4)cc3)cc2n(CCC)c1=O | 0.012 | 22 | 0.02 | 80 | 52
CCCn1c(=O)n(C)c(=O)c2[nH]c(-c3ccc(OCC(=O)Nc4ccc(F)cc4)cc3)cc21 | 0.00955 | 43 | 0.112 | 93 | 24
CCCn1c(=O)c2[nH]c(-c3ccc(OCC(=O)O)cc3)c(Cl)c2n(CCC)c1=O | 0.158 | – | 0.398 | 36 | 19
COCCCn1c(=O)n(C)c(=O)c2[nH]c(-c3ccc(OCC(=O)O)cc3)cc21 | 0.214 | – | 11.5 | 35 | 11
Cn1c(=O)c2[nH]c(-c3ccc(OCC(=O)O)cc3)cc2n(C)c1=O | 0.123 | – | 4.17 | 47 | 14
CCOC(=O)COc1ccc(-c2cc3c([nH]2)c(=O)n(C)c(=O)n3CCCOC)cc1 | 0.372 | – | 1.86 | 22 | 5
